Laboratory results: patent US12534469B2 (CHILDREN'S HOSPITAL MEDICAL CENTER, priority 2020, dated 2026)

Key:
Format in all cases: biochemical
[1] = target: T1, IRAK1 (Homo sapiens, UniProt P51617); assay: RBC HotSpot Kinase Assay, IRAK1
T1 construct: purchased Reaction Biology (RBC HotSpot Kinase Assay)
Source text: (§1) This assay uses the isolated kinase enzyme. This assay is very useful for determining competition of the inhibitor for ATP and/or substrates and for measuring the kinetics of enzyme inhibition. […] Unlike kinase binding assays that measure competition for ATP, the HotSpot Kinase Assay is a functional assay that measures catalytic activity; as such it measures relative functional potency regardless of the mechanism of enzyme inhibition. This assay uses the form of the various enzymes that are easiest to express, which may not necessarily be the form of the enzyme that exist in the cell. (Sometimes the carboxy terminus has been truncated to aid in expression, or, if it is a receptor kinase, the enzyme itself is isolated from the other parts of the receptor that are involved in regulating kinase activity.)
(§2) The reagent used was as follows: Base Reaction buffer; 20 mM Hepes (pH 7.5), 10 mM MgCl2, 1 mM EGTA, 0.01% Brij35, 0.02 mg/ml BSA, 0.1 mM Na3VO4, 2 mM DTT, 1% DMSO. Required cofactors were added individually to each kinase reaction.
(§3) The reaction procedure was as follows: • 1) Substrates were prepared in freshly prepared Reaction Buffer. • 2) Any required cofactors were delivered to the substrate solution above. • 3) Kinase was delivered into the substrate solution and gently mixed. • 4) Compounds were delivered in 100% DMSO into the kinase reaction mixture by Acoustic technology (Echo550; nanoliter range), followed by incubation for 20 min at room temp. • 5) ^33P-ATP was delivered into the reaction mixture to initiate the reaction. • 6) The mixture was incubated for 2 hours at room temperature. • 7) Kinase activity was detected by P81 filter-binding method.

[2] = target: T2, FLT3 (Homo sapiens, UniProt P36888); assay: RBC HotSpot Kinase Assay, FLT3
T2 construct: purchased Reaction Biology (RBC HotSpot Kinase Assay)
T2 sequence (P36888 564-958 limits assumed): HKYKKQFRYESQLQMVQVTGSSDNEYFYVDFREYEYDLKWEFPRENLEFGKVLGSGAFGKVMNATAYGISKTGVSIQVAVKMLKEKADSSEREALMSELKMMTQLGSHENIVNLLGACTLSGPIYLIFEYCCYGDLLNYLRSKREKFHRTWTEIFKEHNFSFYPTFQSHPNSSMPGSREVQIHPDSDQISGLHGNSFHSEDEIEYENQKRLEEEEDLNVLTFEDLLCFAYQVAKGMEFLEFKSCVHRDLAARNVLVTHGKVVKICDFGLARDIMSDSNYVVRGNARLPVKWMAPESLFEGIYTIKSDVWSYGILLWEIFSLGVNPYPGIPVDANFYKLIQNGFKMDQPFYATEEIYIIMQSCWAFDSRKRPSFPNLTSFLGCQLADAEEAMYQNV
Source text: as §1, §2, §3

[3] = target: T3, IRAK4 (Homo sapiens, UniProt Q9NWZ3); assay: RBC HotSpot Kinase Assay, IRAK4; set-up: purchased Reaction Biology (RBC HotSpot Kinase Assay)
T3 sequence (Q9NWZ3 1-460): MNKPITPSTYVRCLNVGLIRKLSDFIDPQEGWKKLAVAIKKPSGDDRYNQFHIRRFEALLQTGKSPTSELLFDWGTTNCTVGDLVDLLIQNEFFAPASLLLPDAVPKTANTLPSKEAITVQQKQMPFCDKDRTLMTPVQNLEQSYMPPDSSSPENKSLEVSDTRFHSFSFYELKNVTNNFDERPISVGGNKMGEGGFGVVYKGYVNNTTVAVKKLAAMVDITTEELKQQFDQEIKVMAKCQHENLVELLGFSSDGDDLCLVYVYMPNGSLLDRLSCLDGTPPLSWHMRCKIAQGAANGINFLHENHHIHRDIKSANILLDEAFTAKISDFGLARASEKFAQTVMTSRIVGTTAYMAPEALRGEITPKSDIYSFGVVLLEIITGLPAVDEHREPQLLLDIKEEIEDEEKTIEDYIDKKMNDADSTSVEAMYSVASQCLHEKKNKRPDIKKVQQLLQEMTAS
Source text: as §1, §2, §3

T1 sequence (P51617 whole entry): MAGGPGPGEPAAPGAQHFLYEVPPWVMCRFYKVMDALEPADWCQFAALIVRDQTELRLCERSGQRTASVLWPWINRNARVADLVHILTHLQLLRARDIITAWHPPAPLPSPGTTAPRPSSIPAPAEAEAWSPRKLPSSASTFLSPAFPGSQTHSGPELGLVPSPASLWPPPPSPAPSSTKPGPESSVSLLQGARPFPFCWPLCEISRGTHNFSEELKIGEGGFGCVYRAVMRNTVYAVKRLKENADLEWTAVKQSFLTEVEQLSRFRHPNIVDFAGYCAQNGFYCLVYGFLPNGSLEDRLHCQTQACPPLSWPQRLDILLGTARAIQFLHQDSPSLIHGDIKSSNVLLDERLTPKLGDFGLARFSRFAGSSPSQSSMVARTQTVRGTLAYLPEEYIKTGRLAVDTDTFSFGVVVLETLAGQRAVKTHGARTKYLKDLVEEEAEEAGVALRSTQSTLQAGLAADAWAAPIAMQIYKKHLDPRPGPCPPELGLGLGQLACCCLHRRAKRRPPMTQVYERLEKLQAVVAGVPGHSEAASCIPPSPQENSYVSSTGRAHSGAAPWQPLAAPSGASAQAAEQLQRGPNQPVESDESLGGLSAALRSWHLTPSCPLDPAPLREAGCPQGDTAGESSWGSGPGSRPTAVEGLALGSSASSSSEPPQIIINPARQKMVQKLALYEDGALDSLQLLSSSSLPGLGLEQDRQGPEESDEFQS

| IC50 [1] [µM] | IC50 [2] [µM] | IC50 [3] [µM] | SMILES |
| --- | --- | --- | --- |
| 6.84 | 0.016 | 0.113 | Fc1cc(F)c2c(-c3ccc4ncc(-c5cccc(NC6CNCC6(F)F)n5)n4n3)cnn2c1 (stereo not drawn) [Compound 55, 6-(6-(4,6-difluoropyrazolo[1,5-a]pyridin-3-yl)imidazo[1,2-b]pyridazin-3-yl)-N-(4,4-difluoropyrrolidin-3-yl)pyridin-2-amine] |
| 0.08 | 0.0008 | 0.001 | FC1(F)CNCC1Nc1cccc(-c2cnc3ccc(-c4cnn5ccccc45)nn23)n1 (stereo not drawn) [Compound 56, N-(4,4-difluoropyrrolidin-3-yl)-6-(6-(pyrazolo[1,5-a]pyridin-3-yl)imidazo[1,2-b]pyridazin-3-yl)pyridin-2-amine] |
| 0.621 | 0.002 | 0.012 | FC1(F)CNCC1Nc1cccc(-c2cnc3ccc(-c4cnn5c4CCCC5)nn23)n1 (stereo not drawn) [Compound 59, N-(4,4-difluoropyrrolidin-3-yl)-6-(6-(4,5,6,7-tetrahydropyrazolo[1,5-a]pyridin-3-yl)imidazo[1,2-b]pyridazin-3-yl)pyridin-2-amine] |
| 0.274 | 0.002 | 0.004 | CC1(C)Cc2c(-c3ccc4ncc(-c5cccc(NC6CNCC6(F)F)n5)n4n3)cnn2C1 (stereo not drawn) [Compound 60, N-(4,4-difluoropyrrolidin-3-yl)-6-(6-(5,5-dimethyl-5,6-dihydro-4H-pyrrolo[1,2-b]pyrazol-3-yl)imidazo[1,2-b]pyridazin-3-yl)pyridin-2-amine] |
| 0.349 | 0.001 | 0.026 | c1cc(NC2CC3(CNC3)C2)nc(-c2cnc3ccc(-c4cnn5ccccc45)nn23)c1 [Compound 61, N-(6-(6-(pyrazolo[1,5-a]pyridin-3-yl)imidazo[1,2-b]pyridazin-3-yl)pyridin-2-yl)-2-azaspiro[3.3]heptan-6-amine] |
| 0.403 | < 0.0005 | 0.016 | c1cc(NC2CC3(CCNC3)C2)nc(-c2cnc3ccc(-c4cnn5ccccc45)nn23)c1 (stereo not drawn) [Compound 62, N-(6-(6-(pyrazolo[1,5-a]pyridin-3-yl)imidazo[1,2-b]pyridazin-3-yl)pyridin-2-yl)-6-azaspiro[3.4]octan-2-amine] |
| 0.269 | < 0.0005 | 0.028 | c1cc(NC2CCC3(CNC3)C2)nc(-c2cnc3ccc(-c4cnn5ccccc45)nn23)c1 (stereo not drawn) [Compound 63, N-(6-(6-(pyrazolo[1,5-a]pyridin-3-yl)imidazo[1,2-b]pyridazin-3-yl)pyridin-2-yl)-2-azaspiro[3.4]octan-6-amine] |
| 3.97 | 0.003 | 0.045 | F[C@H]1CNC[C@@H]1Nc1cccc(-c2cnc3ccc(C4CC4)nn23)n1 [Compound 69, 6-(6-cyclopropylimidazo[1,2-b]pyridazin-3-yl)-N-((3S,4S)-4-fluoropyrrolidin-3-yl)pyridin-2-amine] |
| 5.19 | 0.018 | 0.586 | O[C@H]1CNC[C@@H]1Nc1cccc(-c2cnc3ccc(C4CC4)nn23)n1 [Compound 70, (3S,4S)-4-((6-(6-cyclopropylimidazo[1,2-b]pyridazin-3-yl)pyridin-2-yl)amino)pyrrolidin-3-ol] |
| 2.65 | 0.0008 | 0.036 | FC(F)(F)[C@H]1CNC[C@@H]1Nc1cccc(-c2cnc3ccc(C4CC4)nn23)n1 [Compound 71, 6-(6-cyclopropylimidazo[1,2-b]pyridazin-3-yl)-N-((3R,4S)-4-(trifluoromethyl)pyrrolidin-3-yl)pyridin-2-amine] |
| 3.59 | 0.001 | 0.036 | FC(F)[C@H]1CNC[C@@H]1Nc1cccc(-c2cnc3ccc(C4CC4)nn23)n1 [Compound 72, 6-(6-cyclopropylimidazo[1,2-b]pyridazin-3-yl)-N-((3R,4S)-4-(difluoromethyl)pyrrolidin-3-yl)pyridin-2-amine] |
| 1.83 | 0.01 | 0.292 | F[C@@H]1CNCC[C@H]1Nc1cccc(-c2cnc3ccc(C4CC4)nn23)n1 [Compound 73, 6-(6-cyclopropylimidazo[1,2-b]pyridazin-3-yl)-N-((3R,4R)-3-fluoropiperidin-4-yl)pyridin-2-amine] |
| 5.86 | 0.004 | 0.148 | CO[C@H]1CNC[C@@H]1Nc1cccc(-c2cnc3ccc(C4CC4)nn23)n1 [Compound 74, 6-(6-cyclopropylimidazo[1,2-b]pyridazin-3-yl)-N-((3S,4S)-4-methoxypyrrolidin-3-yl)pyridin-2-amine] |
| 3.14 | 0.0006 | 0.345 | c1cc(N[C@@H]2CCCNC2)nc(-c2cnc3ccc(C4CC4)nn23)c1 [Compound 76, (R)-6-(6-cyclopropylimidazo[1,2-b]pyridazin-3-yl)-N-(piperidin-3-yl)pyridin-2-amine] |
| 1.86 | 0.006 | 0.029 | FC(F)c1ccc2ncc(-c3cccc(N[C@H]4CNC[C@@H]4F)n3)n2n1 [Compound 78, 6-(6-(difluoromethyl)imidazo[1,2-b]pyridazin-3-yl)-N-((3S,4S)-4-fluoropyrrolidin-3-yl)pyridin-2-amine] |
| 4.57 | 0.003 | 0.021 | F[C@H]1CNC[C@@H]1Nc1cccc(-c2cnc3ccc(C(F)(F)F)nn23)n1 [Compound 79, N-((3S,4S)-4-fluoropyrrolidin-3-yl)-6-(6-(trifluoromethyl)imidazo[1,2-b]pyridazin-3-yl)pyridin-2-amine] |
| 3.42 | 0.011 | 0.231 | CC(C)(C)c1ccc2ncc(-c3cccc(N[C@H]4CNC[C@@H]4F)n3)n2n1 [Compound 80, 6-(6-(tert-butyl)imidazo[1,2-b]pyridazin-3-yl)-N-((3S,4S)-4-fluoropyrrolidin-3-yl)pyridin-2-amine] |
| 0.937 | 0.002 | 0.037 | COc1cc2ncc(-c3cccc(N[C@H]4CNC[C@@H](F)C4)n3)n2nc1C1(C(F)(F)F)CC1 [Compound 86, N-((3R,5S)-5-fluoropiperidin-3-yl)-6-(7-methoxy-6-(1-(trifluoromethyl)cyclopropyl)imidazo[1,2-b]pyridazin-3-yl)pyridin-2-amine] |
| 1.65 | 0.003 | 0.083 | COc1ccc2ncc(-c3cccc(N[C@H]4CNC[C@@H]4F)n3)n2n1 [Compound 87, N-((3S,4S)-4-fluoropyrrolidin-3-yl)-6-(6-methoxyimidazo[1,2-b]pyridazin-3-yl)pyridin-2-amine] |
| 7.24 | 0.022 | 0.959 | F[C@H]1CNC[C@@H]1Nc1cccc(-c2cnc3ccc(Oc4ccccc4)nn23)n1 [Compound 88, N-((3S,4S)-4-fluoropyrrolidin-3-yl)-6-(6-phenoxyimidazo[1,2-b]pyridazin-3-yl)pyridin-2-amine] |
| 8.05 | 0.005 | 0.058 | CNc1ccc2ncc(-c3cccc(N[C@H]4CNC[C@@H]4F)n3)n2n1 [Compound 89, 3-(6-(((3S,4S)-4-fluoropyrrolidin-3-yl)amino)pyridin-2-yl)-N-methylimidazo[1,2-b]pyridazin-6-amine] |
| 6.29 | 0.004 | 0.061 | CN(C)c1ccc2ncc(-c3cccc(N[C@H]4CNC[C@@H]4F)n3)n2n1 [Compound 90, 3-(6-(((3S,4S)-4-fluoropyrrolidin-3-yl)amino)pyridin-2-yl)-N,N-dimethylimidazo[1,2-b]pyridazin-6-amine] |
| 1.64 | 0.006 | 0.101 | F[C@H]1CNC[C@@H]1Nc1cccc(-c2cnc3ccc(NC4CCC4)nn23)n1 [Compound 91, N-cyclobutyl-3-(6-(((3S,4S)-4-fluoropyrrolidin-3-yl)amino)pyridin-2-yl)imidazo[1,2-b]pyridazin-6-amine] |
